Assay [1] addresses T1, human GPR139 receptor (Homo sapiens, UniProt Q6DWJ6).
T1 construct: expressed in transfected cells; host or cells: T-REx-CHO (Thermo Fisher Scientific), doxycycline-induced
T1 sequence (Q6DWJ6 1-353): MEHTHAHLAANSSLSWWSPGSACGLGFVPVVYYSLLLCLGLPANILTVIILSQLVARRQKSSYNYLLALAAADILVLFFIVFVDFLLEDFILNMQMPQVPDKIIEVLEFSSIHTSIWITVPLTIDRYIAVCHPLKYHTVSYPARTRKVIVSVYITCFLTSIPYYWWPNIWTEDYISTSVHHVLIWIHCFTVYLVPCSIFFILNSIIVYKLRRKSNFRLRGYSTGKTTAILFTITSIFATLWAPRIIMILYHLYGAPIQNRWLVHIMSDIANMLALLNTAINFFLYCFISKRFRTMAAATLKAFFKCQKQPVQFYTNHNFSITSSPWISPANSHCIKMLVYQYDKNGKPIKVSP
The experiment in a line: GPR139 Competition Binding (membrane-based, tritium-labeled ligand). As to conditions: T-REx-CHO membranes with human GPR139; 6.5 nM tritium-labeled ligand; 11-point curve, 30 μM maximum concentration; read-out: GPR139 Binding Affinity (pKi) (converted). On the procedure:
OPR139 Competition Binding
This membrane-based assay measures the ability of compounds to competitively bind GPR139 in stably transfected TREx™-CHO membranes. To prepare the membranes, T-REx™-CHO (Thermo Fisher Scientific®) cells are stably expressed with human GPR139 receptor, whose expression is controlled by a tetracycline-inducible element. The cells are cultured in medium containing F-12K nutrient mixture-Kaighn's modification, 10% tetracycline-free FBS, Blasticidin S HCl (10 μg/mL) and Hygromycin B (200 μg/mL). GPR139 receptor expression is induced for 18 hours with 2 μg/mL doxycycline (Sigma D9891) in growth media. After addition of doxycycline, cells are harvested in PBS and pelleted by centrifugation for 5 minutes at 200×G. Liquid is aspirated off and cells are resuspended in ice cold lysis buffer (20 mM HEPES/5 mM EDTA pH 7.4/1× Roche® protease inhibitor). Samples are vortexed until homogenous and then placed on ice and homogenized using a Dounce homogenizer at 50% power (3 cycles, 10 strokes per cycle). Lysate is centrifuged at 4° C. for 10 minutes in a tabletop Sorvall® centrifuge at 2000×G. The supernatant is recovered and centrifuged in a Sorvall® ultracentrifuge at 35,000 rpm for 30 minutes at 4° C. The supernatant is discarded, and the remaining pellet resuspended in lysis buffer (20 mM HEPES/0.1 mM EGTA/Roche® protease inhibitor). Membrane protein concentration is determined using Thermo Fisher® BCA quantification kit and is aliquoted into microtubes. Tubes are snap frozen in liquid nitrogen and stored at −80° C. Prior to use, the membranes are removed from cold storage, thawed to room temperature, vortexed until homogenous and diluted in assay buffer (20 mM HEPES pH 7.3, 5 mM MgCl2, 1 mM CaCl2), 1× Thermo Scientific® Halt™ protease inhibitor (78429)).
The assay is run in 96-well, polypropylene, v-bottom plates (Greiner Bio-One® 651201). Test compound in DMSO is added to the wells of each plate (11-point dose response curve, 30 μM maximum concentration, 3-fold serial dilution). A fixed amount of tritium-labeled ligand, (S)-2-(2,3-dimethyl-7-oxothieno[2,3-d]pyridazin-6(7H)-yl)-N-(1-(4-methoxyphenyl-2-t)propan-2-yl)acetamide (Quotient Bioresearch) in assay buffer (6.5 nM assay concentration) is added to each well of the assay plate, which is then agitated on a plate shaker for 30 seconds. Next, a fixed amount of membranes in assay buffer (2 μg membranes) is added to each well of the assay plate, which is then spun for 30 seconds at 300 rpm in a tabletop Eppendorf centrifuge, and then incubated at room temperature for 20 minutes. Using a Tomtec harvester, the contents of the assay plate are transferred to Filtermat A (PerkinElmer® No. 1450-421) which prior to use is pre-soaked in 0.5% PEI (Sigma P3143) for 3 hours and dried at room temperature overnight. Following transfer, the Filtermat is washed 5 times with cold wash buffer (20 mM HEPES pH 7.3, 100 mM NaCl). The Filtermat is dried using a microwave oven and placed in a sample bag (PerkinElmer® No. 1450-432) with a scintillator sheet (PerkinElmer® No. 1450-411). The scintillator sheet is melted to the Filtermat using a heat block set to 65° C., placed in a MicroBeta® cartridge and read using a MicroBeta® scintillation counter. Binding curves are generated with a four-parameter logistic equation using GraphPad Prism® 6 and the inhibition constant Ki is reported as pKi.

The target in assay [2] is T1, human GPR139 receptor. The experiment in a line: Measurement of GPR139 Activation Via Calcium Signaling (FLIPR, T-REx-CHO cells). The class given is cell-based. Particulars: T-REx-CHO cells stably expressing human GPR139, 11-point dose response, 10 μM maximum concentration, read-out: GPR139 Potency (pEC50) (converted). Summed up:
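T-REx-CHO cells stably carrying human GPR139 under tetracycline control, induced with 2 μg/mL doxycycline for 17 h at 37 °C, loaded 40 min with Calcium 5 dye plus probenecid in HBSS/HEPES pH 7.4. Agonist added as 11-point series (10 μM top); fluorescence read 1 min; pEC50 from four-parameter fit.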

For the compound `Cc1nn(C2CC2)c2cnn(CC(=O)N[C@@H](C)c3cccc(F)c3F)c(=O)c12` [Example 30, (S)-2-(1-cyclopropyl-3-methyl-4-oxo-1,4-dihydro-5H-pyrazolo[3,4-d]pyridazin-5-yl)-N-(1-(2,3-difluorophenyl)ethyl)acetamide], the Ki at human GPR139 receptor [1] is 0.257 µM. On human GPR139 receptor [2], the EC50 is 0.0724 µM.
The corresponding values for `COc1ccc([C@H](C)NC(=O)Cn2ncc3c(c(C)nn3C3CC3)c2=O)cc1C` [Example 31, (S)-2-(1-cyclopropyl-3-methyl-4-oxo-1,4-dihydro-5H-pyrazolo[3,4-d]pyridazin-5-yl)-N-(1-(4-methoxy-3-methylphenyl)ethyl)acetamide] are 11.7 µM and 0.0575 µM.
The corresponding values for `Cc1nn(C2CC2)c2cnn(CC(=O)N[C@@H](C)c3ccc(C(F)(F)F)cn3)c(=O)c12` [Example 32] are 30.2 µM and 0.617 µM.
The corresponding values for `Cc1ccc([C@H](C)NC(=O)Cn2ncc3c(cnn3C)c2=O)cc1` [Example 33, (S)-2-(1-methyl-4-oxo-1,4-dihydro-5H-pyrazolo[3,4-d]pyridazin-5-yl)-N-(1-(p-tolyl)ethyl)acetamide] are 5.25 µM and 0.0661 µM.
For the compound `C[C@H](NC(=O)Cn1ncc2c(cnn2C)c1=O)c1ccc(C(F)(F)F)cc1` [Example 34, (S)-2-(1-methyl-4-oxo-1,4-dihydro-5H-pyrazolo[3,4-d]pyridazin-5-yl)-N-(1-(4-(trifluoromethyl)phenyl)ethyl)acetamide], the Ki at human GPR139 receptor [1] is 6.03 µM. For the same compound, at human GPR139 receptor [2], the EC50 was 0.0708 µM.
With `Cc1ccc([C@H](C)NC(=O)Cn2ncc3c(cnn3C)c2=O)c(F)c1` [Example 35, (S)—N-(1-(2-fluoro-4-methylphenyl)ethyl)-2-(1-methyl-4-oxo-1,4-dihydro-5H-pyrazolo[3,4-d]pyridazin-5-yl)acetamide], at human GPR139 receptor [1], the Ki is 1.02 µM. Besides, at human GPR139 receptor [2], the EC50 was 0.0794 µM.
The corresponding values for `Cc1ccc([C@H](C)NC(=O)Cn2ncc3c(c(C)nn3C)c2=O)cc1` [Example 36, (S)-2-(1,3-dimethyl-4-oxo-1,4-dihydro-5H-pyrazolo[3,4-d]pyridazin-5-yl)-N-(1-(p-tolyl)ethyl)acetamide] are 0.251 µM and 0.0389 µM.
The corresponding values for `Cc1nn(C)c2cnn(CC(=O)N[C@@H](C)c3ccc(C(F)(F)F)cc3)c(=O)c12` [Example 37, (S)-2-(1,3-dimethyl-4-oxo-1,4-dihydro-5H-pyrazolo[3,4-d]pyridazin-5-yl)-N-(1-(4-(trifluoromethyl)phenyl)ethyl)acetamide] are 0.355 µM and 0.0263 µM.
Turning to `Cc1ccc([C@H](C)NC(=O)Cn2ncc3c(c(C4CC4)nn3C)c2=O)cc1` [Example 38, (S)-2-(3-cyclopropyl-1-methyl-4-oxo-1,4-dihydro-5H-pyrazolo[3,4-d]pyridazin-5-yl)-N-(1-(p-tolyl)ethyl)acetamide], the Ki at human GPR139 receptor [1] was 0.0724 µM. Moreover, the EC50 on human GPR139 receptor [2] was 0.055 µM.
On to `Cc1ccc([C@H](C)NC(=O)Cn2nc(C)c3cnn(C)c3c2=O)cc1` [Example 39, (S)-2-(1,4-dimethyl-7-oxo-1,7-dihydro-6-pyrazolo[3,4-d]pyridazin-6-yl)-N-(1-(p-totyl)ethyl)acetamide], for which, on human GPR139 receptor [1], the Ki was 0.229 µM. Also, at human GPR139 receptor [2], the EC50 is 0.0363 µM.
The corresponding values for `Cc1nn(CC(=O)N[C@@H](C)c2ccc(C(F)(F)F)cc2)c(=O)c2c1cnn2C` [Example 40, (S)-2-(1,4-dimethyl-7-oxo-1,7-dihydro-6H-pyrazolo[3,4-d]pyridazin-6-yl)-N-(1-(4-(trifluoromethyl)phenyl)ethyl)acetamide] are 0.251 µM and 0.0331 µM.
The corresponding values for `Cc1ccc([C@H](C)NC(=O)Cn2nc(C)c3cnn(C)c3c2=O)c(F)c1` [Example 41, (S)-2-(1,4-dimethyl-7-oxo-1,7-dihydro-6H-pyrazolo[3,4-d]pyridazin-6-yl)-N-(1-(2-fluoro-4-methylphenyl)ethyl)acetamide] are 0.0741 µM and 0.0347 µM.
The corresponding values for `Cc1ccc([C@H](C)NC(=O)Cn2nc(C3CC3)c3cnn(-c4ccccc4)c3c2=O)c(F)c1` [Example 42, (S)-2-(4-cyclopropyl-7-oxo-1-phenyl-1,7-dihydro-6H-pyrazolo[3,4-d]pyridazin-6-yl)-N-(1-(2-fluoro-4-methylphenyl)ethyl)acetamide] are 0.0195 µM and at least 10 µM.
For `Cc1ccc([C@H](C)NC(=O)Cn2nc(C3CC3)c3cnn(-c4ccccc4)c3c2=O)cc1` [Example 43, (S)-2-(4-cyclopropyl-7-oxo-1-phenyl-1,7-dihydro-6H-pyrazolo[3,4-d]pyridazin-6-yl)-N-(1-(p-tolyl)ethyl)acetamide], the Ki at human GPR139 receptor [1] was 0.0891 µM. The EC50 at human GPR139 receptor [2] was 0.708 µM.
The corresponding values for `C[C@H](NC(=O)Cn1nc(C2CC2)c2cnn(-c3ccccc3)c2c1=O)c1ccc(C(F)(F)F)cc1` [Example 44, (S)-2-(4-cyclopropyl-7-oxo-1-phenyl-1,7-dihydro-6H-pyrazolo[3,4-d]pyridazin-6-yl)-N-(1-(4-(trifluoromethyl)phenyl)ethyl)acetamide] are 0.105 µM and 3.63 µM.
The corresponding values for `C[C@H](NC(=O)Cn1nc(C2CC2)c2cnn(-c3ccccc3)c2c1=O)c1ccc(OC(F)(F)F)cc1` [Example 45, (S)-2-(4-cyclopropyl-7-oxo-1-phenyl-1,7-dihydro-6H-pyrazolo[3,4-d]pyridazin-6-yl)-N-(1-(4-(trifluoromethoxy)phenyl)ethyl)acetamide] are 0.224 µM and at least 10 µM.
The corresponding values for `Cc1nn(C)c2cnn(CC(=O)N[C@@H](C)c3ccc(OC(F)(F)F)cc3)c(=O)c12` [Example 47, (S)-2-(1,3-dimethyl-4-oxo-1,4-dihydro-5H-pyrazolo[3,4-d]pyridazin-5-yl)-N-(1-(4-(trifluoromethoxy)phenyl)ethyl)acetamide] are 0.162 µM and 0.0372 µM.
Consider `COc1ccc([C@H](C)NC(=O)Cn2ncc3c(c(C)nn3C)c2=O)cc1` [Example 48, (S)-2-(1,3-dimethyl-4-oxo-1,4-dihydro-5H-pyrazolo[3,4-d]pyridazin-5-yl)-N-(1-(4-methoxyphenyl)ethyl)acetamide], for which, at human GPR139 receptor [1], the Ki is 1.91 µM. Further, the EC50 on human GPR139 receptor [2] was 0.0331 µM.
The corresponding values for `Cc1ccc([C@H](C)NC(=O)Cn2ncc3c(c(C(C)C)nn3C)c2=O)c(F)c1` [Example 49, (S)—N-(1-(2-fluoro-4-methylphenyl)ethyl)-2-(3-isopropyl-1-methyl-4-oxo-1,4-dihydro-5H-pyrazolo[3,4-d]pyridazin-5-yl)acetamide] are 0.0229 µM and 0.049 µM.

The values are drawn from US12370192B2, “Azole-fused pyridazin-3(2H)-one derivatives” (TAKEDA PHARMACEUTICAL COMPANY LIMITED, priority 2019, dated 2025).
